Earlier results on three compounds are cited in patent publication US10925856B2, “Methods and compositions involving bucindolol for the treatment of atrial fibrillation” (priority 2018, dated 2021).

Where two headings read alike, the source gives them in different places.

The data set has as its system patients with HF and/or AF. Particulars: persistent AF recently converted to SR, cited from earlier work.

Regarding `CC(C)NCC(O)c1ccc(NS(C)(=O)=O)cc1` (stereo not shown) [sotalol], where the note is “Plewan et al”, the AF recurrence rate was 41%.

`CC(C)NCC(O)COc1ccc(COCCOC(C)C)cc1` (stereo not shown) [bisoprolol]: the AF recurrence rate is listed as 46% (Katritsis et al) and 42% (Plewan et al).

As for `COc1ccccc1OCCNCC(O)COc1cccc2[nH]c3ccccc3c12` (stereo not shown) [carvedilol], under “Katritsis et al”, the AF recurrence rate is reported as 32%.
